# Reference: US20260355196A1, “INHIBITORS AND DEGRADERS OF PIP4K PROTEIN” (Larkspur Biosciences, Inc., priority 2023, published 2026)
# Biological target: T1, PIP4K2C (Homo sapiens, UniProt Q8TBX8)
# T1 sequence (Q8TBX8 1-421): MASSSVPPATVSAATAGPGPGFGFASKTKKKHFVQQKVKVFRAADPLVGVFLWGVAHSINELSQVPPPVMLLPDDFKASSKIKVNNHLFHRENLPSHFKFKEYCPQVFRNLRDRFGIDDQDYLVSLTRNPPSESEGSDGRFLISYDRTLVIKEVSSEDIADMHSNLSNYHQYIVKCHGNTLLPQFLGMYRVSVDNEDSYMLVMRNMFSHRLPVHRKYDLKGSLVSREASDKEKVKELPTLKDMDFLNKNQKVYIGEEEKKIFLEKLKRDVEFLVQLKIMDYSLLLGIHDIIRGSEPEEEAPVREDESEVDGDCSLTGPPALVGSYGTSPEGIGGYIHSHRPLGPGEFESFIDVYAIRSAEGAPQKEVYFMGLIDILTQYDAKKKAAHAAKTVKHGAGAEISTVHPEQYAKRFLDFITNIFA
# Test: HiBiT PIP4K2C degradation assay in MOLT-4 cells (endogenous PIP4K2C C-terminally tagged with HiBiT)
# Type: cell-based
# Parameters: untagged in primary human PBMCs and monocyte-derived dendritic cells
# Conditions: 6 hours of incubation time, rather than 24 hours; MOLT-4, top concentration 10 micromolar; read-out: HiBIT-degradation MOLT4 PIP4k2C DC50 (6 hours, marked *)
# Summary of the method: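 DC50 derived by Hill fit of luminescence from Nano-Glo HiBiT lytic detection. Cells were HiBiT knock-in MOLT-4 (C-terminal tag on endogenous PIP4K2C), exposed 6 h or 24 h at 37 C to compound, top concentration 10 micromolar, 3-fold steps, 10 points, duplicates.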
row,SMILES,DC50 [nM]
1,"O=C1CC[C@@H](Nc2ccc(N3CCN([C@H]4CC[C@H](NC(=O)[C@H]5CC[C@H](Nc6ncc(F)c(-c7cccc(-n8ccccc8=O)c7)n6)CC5)CC4)CC3)c(F)c2)C(=O)N1 (single isomer, unassigned) [Compound 420]",< 500
2,"O=C1CC[C@H](Nc2ccc(C3CCN(CC4(O)CCN(C(=O)[C@H]5CC[C@H](Nc6ncc(F)c(-c7cccc(N8CCCCC8)c7)n6)CC5)CC4)CC3)c(F)c2)C(=O)N1 [Compound 514, trans-3-((3-fluoro-4-(1-((1-(4-((5-fluoro-4-(3-(piperidin-1-yl)phenyl)pyrimidin-2-yl)amino)cyclohexane-1-carbonyl)-4-hydroxypiperidin-4-yl)methyl)piperidin-4-yl)phenyl)amino)piperidine-2,6-dione]",< 500
3,"O=C1CCC(Nc2ccc(C3CCN([C@H]4CC[C@H](NC(=O)[C@H]5CC[C@H](Nc6ncc(F)c(-c7cccc(N8CCCCC8)c7)n6)CC5)CC4)CC3)c(F)c2)C(=O)N1 (stereo partly drawn) [Compound 515, trans-N-(trans-4-(4-(4-((2,6-dioxopiperidin-3-yl)amino)-2-fluorophenyl)piperidin-1-yl)cyclohexyl)-4-((5-fluoro-4-(3-(piperidin-1-yl)phenyl)pyrimidin-2-yl)amino)cyclohexane-1-carboxamide]",< 500
4,"O=C1CC[C@@H](Nc2ccc(C3CCN([C@H]4CC[C@H](C(=O)N[C@H]5CC[C@H](Nc6ncc(F)c(-c7cccc(-n8ccccc8=O)c7)n6)CC5)CC4)CC3)c(F)c2)C(=O)N1 [Compound 706, (1R,4R)-4-(4-(4-(((R)-2,6-dioxopiperidin-3-yl)amino)-2-fluorophenyl)piperidin-1-yl)-N-((1r,4R)-4-((5-fluoro-4-(3-(2-oxopyridin-1(2H)-yl)phenyl)pyrimidin-2-yl)amino)cyclohexyl)cyclohexane-1-carboxamide]",< 500
5,"O=C1CCC(Nc2ccc(N3CCN(CC4(F)CCN(C(=O)[C@H]5CC[C@H](Nc6ncc(F)c(-c7cccc(N8CCCCC8)c7)n6)CC5)CC4)CC3)c(F)c2)C(=O)N1 (stereo partly drawn) [Compound 491, trans-3-((3-fluoro-4-(4-((4-fluoro-1-(4-((5-fluoro-4-(3-(piperidin-1-yl)phenyl)pyrimidin-2-yl)amino)cyclohexane-1-carbonyl)piperidin-4-yl)methyl)piperazin-1-yl)phenyl)amino)piperidine-2,6-dione]",< 500
6,"Cn1nc(C2CCC(=O)NC2=O)c2ccc(N3CCN([C@H]4CC[C@H](C(=O)N[C@H]5CC[C@H](Nc6ncc(F)c(-c7cccc(-n8ccccc8=O)c7)n6)CC5)CC4)CC3)cc21 (stereo partly drawn) [Compound 388, trans-4-(4-(3-(2,6-dioxopiperidin-3-yl)-1-methyl-1H-indazol-6-yl)piperazin-1-yl)-N-(trans-4-((5-fluoro-4-(3-(2-oxopyridin-1(2H)-yl)phenyl)pyrimidin-2-yl)amino)cyclohexyl)cyclohexane-1-carboxamide]",< 500
7,"O=C1CCC(Nc2ccc(C3CCN(C[C@H]4CC[C@H](C(=O)N5CCC(Nc6ncc(F)c(-c7cccc(-c8ccc[nH]c8=O)c7)n6)CC5)CC4)CC3)c(F)c2)C(=O)N1 (stereo partly drawn) [Compound 654, 3-((3-fluoro-4-(1-(((trans)-4-(4-((5-fluoro-4-(3-(2-oxo-1,2-dihydropyridin-3-yl)phenyl)pyrimidin-2-yl)amino)piperidine-1-carbonyl)cyclohexyl)methyl)piperidin-4-yl)phenyl)amino)piperidine-2,6-dione]",< 500
8,"O=C1CCC(Nc2ccc(C3CCN([C@H]4CC[C@H](C(=O)N[C@H]5CC[C@H](Nc6ncc(F)c(-c7cccc(N8CCCCC8)c7)n6)CC5)CC4)CC3)c(F)c2)C(=O)N1 (stereo partly drawn) [Compound 556, trans-(1r,4R)-4-(4-(4-((2,6-dioxopiperidin-3-yl)amino)-2-fluorophenyl)piperidin-1-yl)-N-((1r,4R)-4-((5-fluoro-4-(3-(piperidin-1-yl)phenyl)pyrimidin-2-yl)amino)cyclohexyl)cyclohexane-1-carboxamide]",< 500
9,"O=C1CCC(Nc2ccc(C3CCN(C[C@H]4CC[C@H](COC(=O)N5CCC(Nc6ncc(F)c(-c7cccc(-n8ccccc8=O)c7)n6)CC5)CC4)CC3)c(F)c2)C(=O)N1 (stereo partly drawn) [Compound 644, trans-(4-((4-(4-((2,6-dioxopiperidin-3-yl)amino)-2-fluorophenyl)piperidin-1-yl)methyl)cyclohexyl)methyl 4-((5-fluoro-4-(3-(2-oxopyridin-1 (2H)-yl)phenyl)pyrimidin-2-yl)amino)piperidine-1-carboxylate]",< 500

# Same assay, conditions: 24 hours incubation, MOLT-4, top concentration 10 micromolar; read-out: HiBIT-degradation MOLT4 PIP4k2C 24 hours DC50
row,SMILES,DC50 [nM]
1,"O=C1CCC(n2c(=O)oc3cc(C4CCN(CC5CCN(CC(=O)N6CCC(Nc7ncc(Cl)c(-c8cccc(-n9ccccc9=O)c8)n7)CC6)CC5)CC4)ccc32)C(=O)N1 (centres unmarked) [Compound 373, 3-(6-(1-((1-(2-(4-((5-chloro-4-(3-(2-oxopyridin-1(2H)-yl)phenyl)pyrimidin-2-yl)amino)piperidin-1-yl)-2-oxoethyl)piperidin-4-yl)methyl)piperidin-4-yl)-2-oxobenzo[d]oxazol-3 (2H)-yl)piperidine-2,6-dione]",> 5000
2,"Cn1nc(C2CCC(=O)NC2=O)c2ccc(N3CCC(CN4CCC(NC(=O)[C@H]5CCC[C@@H](Nc6ncc(F)c(-c7cccc(-n8ccccc8=O)c7)n6)C5)CC4)CC3)cc21 (relative stereo) [Compound 332, cis-N-(1-((1-(3-(2,6-dioxopiperidin-3-yl)-1-methyl-1H-indazol-6-yl)piperidin-4-yl)methyl)piperidin-4-yl)-3-((5-fluoro-4-(3-(2-oxopyridin-1(2H)-yl)phenyl)pyrimidin-2-yl)amino)cyclohexane-1-carboxamide]",< 500
3,"Cn1c(=O)n(C2CCC(=O)NC2=O)c2ccc(C3CCN(CC[C@H]4CC[C@H](C(=O)N5CCC(Nc6ncc(Cl)c(-c7cccc(-c8ccc(F)cc8)c7)n6)CC5)CC4)CC3)cc21 (relative stereo) [Compound 338, trans-3-(5-(1-(2-(4-(4-((5-chloro-4-(4′-fluoro-[1,1′-biphenyl]-3-yl)pyrimidin-2-yl)amino)piperidine-1-carbonyl)cyclohexyl)ethyl)piperidin-4-yl)-3-methyl-2-oxo-2,3-dihydro-1H-benzo[d]imidazol-1-yl)piperidine-2,6-dione]",< 500
4,"Cn1nc(C2CCC(=O)NC2=O)c2ccc(C3CCN(CC4CCN(CC(=O)N5CCC(Nc6ncc(Cl)c(-c7cccc(-c8ccc(F)cc8)c7)n6)CC5)CC4)CC3)cc21 (centres unmarked) [Compound 277, 3-(6-(1-((1-(2-(4-((5-chloro-4-(4′-fluoro-[1,1′-biphenyl]-3-yl)pyrimidin-2-yl)amino)piperidin-1-yl)-2-oxoethyl)piperidin-4-yl)methyl)piperidin-4-yl)-1-methyl-1H-indazol-3-yl)piperidine-2,6-dione]",500 to 1000
5,"Cn1c(=O)n(C2CCC(=O)NC2=O)c2ccc(C3CCN(CC4CCN(CC(=O)N5CCC[C@H](Nc6ncc(Cl)c(-c7cccc(-c8ccccc8)c7)n6)C5)CC4)CC3)cc21 (stereo partly drawn) [Compound 73, 3-(5-(1-((1-(2-((S)-3-((4-([1,1′-biphenyl]-3-yl)-5-chloropyrimidin-2-yl)amino)piperidin-1-yl)-2-oxoethyl)piperidin-4-yl)methyl)piperidin-4-yl)-3-methyl-2-oxo-2,3-dihydro-1H-benzo[d]imidazol-1-yl)piperidine-2,6-dione]",< 500
6,"Cn1nc(C2CCC(=O)NC2=O)c2ccc(C3CCN(C[C@H]4CC[C@H](NC(=O)[C@H]5CCC[C@@H](Nc6ncc(F)c(-c7cccc(-n8ccccc8=O)c7)n6)C5)CC4)CC3)cc21 (relative stereo) [Compound 307, cis-trans-N-(4-((4-(3-(2,6-dioxopiperidin-3-yl)-1-methyl-1H-indazol-6-yl)piperidin-1-yl)methyl)cyclohexyl)-3-((5-fluoro-4-(3-(2-oxopyridin-1(2H)-yl)phenyl)pyrimidin-2-yl)amino)cyclohexane-1-carboxamide]",1000 to 5000
7,"Cn1nc(N2CCC(=O)NC2=O)c2ccc(C3CCN(CC(=O)N4CCC(O)(C(=O)N5CCC(Nc6ncc(F)c(-c7cccc(-n8ccccc8=O)c7)n6)CC5)CC4)CC3)cc21 [Compound 346, 1-(6-(1-(2-(4-(4-((5-fluoro-4-(3-(2-oxopyridin-1(2H)-yl)phenyl)pyrimidin-2-yl)amino)piperidine-1-carbonyl)-4-hydroxypiperidin-1-yl)-2-oxoethyl)piperidin-4-yl)-1-methyl-1H-indazol-3-yl)dihydropyrimidine-2,4(1H,3H)-dione]",> 5000
8,"O=C1CCC(n2c(=O)oc3cc(C4CCN(CCC5CCN(C(=O)[C@@H]6CCC[C@H](Nc7ncc(F)c(-c8cccc(N9CCCOC9=O)c8)n7)C6)CC5)CC4)ccc32)C(=O)N1 (stereo partly drawn) [Compound 355, 3-(6-(1-(2-(1-((1R,3S)-3-((5-fluoro-4-(3-(2-oxo-1,3-oxazinan-3-yl)phenyl)pyrimidin-2-yl)amino)cyclohexane-1-carbonyl)piperidin-4-yl)ethyl)piperidin-4-yl)-2-oxobenzo[d]oxazol-3 (2H)-yl)piperidine-2,6-dione]",500 to 1000
